Assay results from PMC9967275, “Screening the Pathogen Box to Discover and Characterize New Cruzain and TbrCatL Inhibitors” (Pathogens, 2023).
Like-named read-outs stand apart in the source and are kept apart here.

Columns and labels:
TbrCatL = molecular target: T1, TbrCatL (Trypanosoma brucei rhodesiense, UniProt Q95PM0); test: TbrCatL enzymatic inhibition assay (cleavage of fluorogenic substrate Z-FR-AMC); assay type: biochemical; settings: for TbrCatL Inhibition 0’: 0’ (no pre-incubation); for TbrCatL Inhibition 0’ / TbrCatL Inhibition 10’: sheet Screening results; for TbrCatL Inhibition 10’: 10’ (pre-incubation); for TbrCatL 0’ Inhibition: 0’ (pre-incubation time); for TbrCatL 0’ Inhibition / TbrCatL 10’ Inhibition: sheet "Screening results"; for TbrCatL 10’ Inhibition: 10’ (pre-incubation time);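 on TbrCatL 0’ Inhibition: at 5 µM compound concentration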;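 on TbrCatL 10’ Inhibition: at 5 µM compound concentration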;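 on TbrCatL Inhibition 0’: at 5 µM compound concentration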;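 on TbrCatL Inhibition 10’: at 5 µM compound concentration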
T1 construct: Conor Caffrey (University of California San Diego)
Procedure: (§1) Allison Doak and Prof. Brian Shoichet (University of California San Francisco, San Francisco, CA, USA) and Prof. Conor Caffrey (University of California San Diego, San Diego, CA, USA) generously provided recombinant cruzain and TbrCatL, respectively. In vitro activity of proteases cruzain and TbrCatL was assayed as previously described. Briefly, enzyme activity was measured by monitoring the cleavage of the fluorogenic substrate […] (Z-FR-AMC) at 25 °C. Fluorescence was monitored at 340/440 nm (excitation/emission) over 5–7 min in a Synergy2 Biotek plate reader. […] DMSO and 1 μM E-64 were employed as negative and positive controls, respectively, in all assays. Two conditions were employed for both enzymes: 10′ pre-incubation of the enzyme in the presence of the compound (10′ inc) and no pre-incubation (0′). Reported values correspond to the mean and standard error of the mean (SEM) and all analyses were performed using GraphPad Prism 6.0.
(§2) For the initial screening, compounds were assayed at 5 μM. […] IC50 curves were obtained from a non-linear fit of at least seven distinct compound concentrations, in triplicate. Reported IC50 values are the mean and SEM of two independent measurements.

cruzain = cruzain (Trypanosoma cruzi, UniProt P25779); test: biochemical; settings: for Cruzain Inhibition 0’: 0’ (no pre-incubation); for Cruzain Inhibition 0’ / Cruzain Inhibition 10’: sheet Screening results; for Cruzain Inhibition 10’: 10’ (pre-incubation); for Cruzain 0’ Inhibition: 0’ (pre-incubation time); for Cruzain 10’ Inhibition: 10’ (pre-incubation time);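 on Cruzain 0’ Inhibition: at 5 µM compound concentration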;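 on Cruzain 10’ Inhibition: at 5 µM compound concentration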;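 on Cruzain Inhibition 0’: at 5 µM compound concentration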;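 on Cruzain Inhibition 10’: at 5 µM compound concentration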
Procedure: as §1, §2

[1] = read-out: Inhibition at 5 µM (Mean ± SEM %) TbrCatL 0′
[2] = read-out: Inhibition at 5 µM (Mean ± SEM %) TbrCatL 10′ inc
[3] = read-out: TbrCatL 0’ Inhibition
[4] = read-out: TbrCatL 10’ Inhibition
[5] = read-out: Cruzain 0’ Inhibition, 0’ (pre-incubation time), sheet "Screening results"
[6] = read-out: Cruzain 10’ Inhibition, 10’ (pre-incubation time), sheet "Screening results"
[7] = read-out: Inhibition at 5 µM (Mean ± SEM %) Cruzain 0′, 5 µM, no pre-incubation, initial screening
[8] = read-out: Inhibition at 5 µM (Mean ± SEM %) Cruzain 10′ inc, 5 µM, 10′ pre-incubation, initial screening
[9] = read-out: Inhibition of cruzain or TbrCatL (either enzyme) in the initial screening, 5 µM, either cruzain or TbrCatL, with or without pre-incubation

T1 sequence (Q95PM0 entry or part of it): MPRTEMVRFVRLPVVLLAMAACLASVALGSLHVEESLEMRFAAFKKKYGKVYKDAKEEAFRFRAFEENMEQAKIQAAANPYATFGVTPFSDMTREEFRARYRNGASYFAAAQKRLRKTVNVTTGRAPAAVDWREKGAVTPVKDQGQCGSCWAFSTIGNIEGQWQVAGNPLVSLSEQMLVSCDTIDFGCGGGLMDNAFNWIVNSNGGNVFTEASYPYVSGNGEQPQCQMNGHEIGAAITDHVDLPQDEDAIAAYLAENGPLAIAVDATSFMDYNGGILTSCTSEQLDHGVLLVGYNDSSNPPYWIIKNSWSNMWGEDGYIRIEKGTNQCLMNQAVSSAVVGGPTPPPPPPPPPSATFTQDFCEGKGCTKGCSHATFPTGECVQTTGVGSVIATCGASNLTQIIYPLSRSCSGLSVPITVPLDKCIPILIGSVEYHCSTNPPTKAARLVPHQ
Sequence of cruzain (P25779 123-337 limits assumed): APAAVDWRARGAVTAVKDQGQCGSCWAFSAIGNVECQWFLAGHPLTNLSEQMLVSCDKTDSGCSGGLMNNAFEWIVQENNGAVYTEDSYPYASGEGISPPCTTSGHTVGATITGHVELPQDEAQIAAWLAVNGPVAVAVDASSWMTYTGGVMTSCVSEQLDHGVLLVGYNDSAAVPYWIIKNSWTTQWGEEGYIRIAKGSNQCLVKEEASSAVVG

Structure (SMILES)	TbrCatL Inhibition 0’ (TbrCatL)	TbrCatL Inhibition 10’ (TbrCatL)	Cruzain Inhibition 0’ (cruzain)	Cruzain Inhibition 10’ (cruzain)	TbrCatL 0’ Inhibition (TbrCatL)	TbrCatL 10’ Inhibition (TbrCatL)	Cruzain 0’ Inhibition (cruzain; sheet "Screening results")	Cruzain 10’ Inhibition (cruzain; sheet "Screening results")	other results
CS(=O)(=O)c1cccc(-c2cnc3[nH]cc(-c4ccc(CCC(=O)O)cc4)c3c2)c1 [MMV026020]	15%	20%	12%	17%	–	–	–	–	–
COc1ccc(-c2cnc3cnc(-c4cccc(OC(C)C)c4)cn23)cc1 [MMV688270]	–	–	–	–	-8%	-8%	-4%	5%	–
O=C(NCc1ccoc1)N1CCN(Cc2ccc3c(c2)OCO3)CC1 [MMV688553]	-1.2%	-6.4%	-7%	0.9%	–	–	–	–	–
Cc1cccnc1NC(=O)c1cccc(OCc2c(C)noc2C)c1 [MMV688793]	14%	10%	16%	10%	–	–	–	–	–
COc1ccc(N(CCc2cccc(C)n2)C(C)=O)cc1 [MMV675995]	–	–	–	–	-3%	19%	2.8%	1.9%	–
COc1cc(N[C@@H](C)CCCN)c2ncccc2c1 [MMV000023]	9%	5%	2.8%	6.4%	–	–	–	–	–
CNC(=O)C1Cc2c([nH]c3cc(Cl)ccc23)C2(CCN(CCc3ccccc3)CC2)N1 (centres unmarked) [MMV031011]	–	–	–	–	-11%	-8%	-7.5%	-0.7%	–
COc1cc(C2=NCCN2)ccc1-c1cn(-c2cccc(C3=NCCN3)c2)nn1 [MMV688407]	–	–	–	–	14%	36%	2.2%	21%	–
Cc1ccc2cc(C3NC(=O)c4ccccc4N3)c(Cl)nc2c1 (centres unmarked) [MMV019807]	5%	9%	8%	7%	–	–	–	–	–
CC(C)(CN)c1nc(-c2ccc(Cl)c(O)c2)c(-c2ccnc(N)n2)[nH]1 [MMV030734]	–	–	–	–	7.5%	-9.5%	5%	-5.6%	–
Cn1ncc2c(N3CCOCC3)nc(NCCc3c[nH]c4ccccc34)nc21 [MMV676382]	4.7%	7.5%	17%	15%	–	–	–	–	–
COc1cc(OC)cc(C(=O)NCC2Cc3cc(Cl)cc(-c4ccncc4)c3O2)c1 (centres unmarked) [MMV007471]	–	–	–	–	0.4%	-2%	1.1%	6%	–
COc1cc2ncnc(NC3CCN(Cc4ccccc4)CC3)c2cc1OC [MMV006741]	15%	5.4%	8%	10%	–	–	–	–	–
COc1cccc(CC(=O)N2CCC(n3c(C)nc4ccc(F)cc43)CC2)c1 [MMV020081]	–	–	–	–	1.6%	18%	5%	10%	–
COc1ccc(Oc2ccc([C@@H](C)N(C)c3ncc4c(N)nc(N)nc4n3)cc2)cc1 [MMV690102]	–	–	–	–	-2.5%	14%	0.4%	12%	–
O=C(NCCN1CCCC1)c1cc(NCCN2CCOCC2)nc2ccc(Cl)cc12 [MMV634140]	–	–	–	–	–	–	–	–	inhibition at 5 µM (TbrCatL; [1]): 11 ± 1%; inhibition at 5 µM (TbrCatL; [2]): 42 ± 3%; inhibition at 5 µM (TbrCatL; [3]): 11%; inhibition at 5 µM (TbrCatL; [4]): 42%; inhibition at 5 µM (cruzain; [5]): 24%; inhibition at 5 µM (cruzain; [6]): 31%; inhibition at 5 µM (cruzain; [7]): 24 ± 1%; inhibition at 5 µM (cruzain; [8]): 31 ± 3%; inhibition at 5 µM (cruzain; [9]): ≥ 40%
Cc1ccc2c(c1C)NC(=O)C21NN=C(c2ccccc2)S1 (centres unmarked) [MMV019189]	-21%	14%	-17%	-22%	–	–	–	–	–
CC[C@H](CO)NCCN[C@H](CC)CO [MMV687801]	7%	0.4%	-4.5%	0.4%	–	–	–	–	–
N#Cc1nc(-c2ccccc2F)oc1NCCc1ccccc1 [MMV676384]	–	–	–	–	3.4%	7%	7%	6%	–
CC(C)(C)OC(=O)N1CCN(c2cc(-c3ccc(Oc4ccccc4)cc3)n[nH]2)CC1 [MMV676057]	–	–	–	–	-2.3%	-12%	-1.5%	-3.4%	–
CCn1cnc2c(Nc3cc(F)cc(F)c3)nc(C#N)nc21 [MMV676881, reference compound]	–	–	–	–	–	–	–	–	Inhibition at 5 µM (Mean ± SEM %) TbrCatL 10′ inc (TbrCatL; 5 µM, 10′ pre-incubation, initial screening): fully inhibited; Inhibition at 5 µM (Mean ± SEM %) TbrCatL 0′ (TbrCatL; 5 µM, no pre-incubation, initial screening): fully inhibited; inhibition at 5 µM (TbrCatL; [1]): 100%; inhibition at 5 µM (TbrCatL; [2]): 100 ± 2%; inhibition at 5 µM (TbrCatL; [3]): 104%; inhibition at 5 µM (TbrCatL; [4]): 103%; inhibition at 5 µM (cruzain; [5]): 108%; inhibition at 5 µM (cruzain; [6]): 108%; inhibition at 5 µM (cruzain; [7]): 100 ± 2%; inhibition at 5 µM (cruzain; [8]): 100 ± 1%; inhibition at 5 µM (cruzain; [9]): ≥ 60%
COc1cccc2c(C)nc(N=C(N)N)nc12 [MMV000907]	32%	23%	9.5%	25%	–	–	–	–	–
OC[C@H]1O[C@@H](n2c3ccc(Cl)cc3c3c(-c4cc5ccccc5o4)ncnc32)C(O)[C@H]1O (some centres unmarked) [MMV688921]	–	–	–	–	5.5%	4.4%	4.7%	11%	–
CC(C)C(NC(=O)Cc1cccc2ccccc12)C(=O)Nc1cccc(C#N)c1 (centres unmarked) [MMV020591]	-8%	-3.7%	-1.7%	-0.4%	–	–	–	–	–
Cc1nnc(NCc2cccc(Cl)c2)c2ccccc12 [MMV676555]	3%	-4.6%	-1.4%	3.2%	–	–	–	–	–
COc1cccc(-c2nc3c(N4CCCC4)cccc3n2CC2CCCN2)n1 (centres unmarked) [MMV687703]	–	–	–	–	26%	16%	14%	11%	–
CC(C)(C)c1ccc(N[C@@H]2CCCC[C@H]2NC(=O)c2ccco2)cc1 [MMV675969]	–	–	–	–	-4.6%	-6%	-8%	-5%	–
CCc1ccc(C(NCc2nc(N)nc(N(C)C)n2)C(C)C)cc1 (centres unmarked) [MMV1019989]	–	–	–	–	-6%	-5%	-10%	-7%	–
CCCn1nnc(NC(=O)COc2ccc(C3CCCCC3)cc2)n1 [MMV676597]	10%	10%	3%	-3.3%	–	–	–	–	–
